Measured values: PubChem BioAssay AID248 (DTP/NCI, 2004)
Several values for one entry are separate records, joined by “and”; a condition that tells them apart may be missing. Equal values may be shown once. Inconclusive results and toxic doses are left out. Cut-off read from the data, not from the text of the source: active = T/C of 150% or more; inactive = T/C below 125%.

Test system: L1210 leukemia ip in BDF1 mice, survival T/C
Assay: NCI In Vivo Anticancer Drug Screen. Data for tumor model L1210 Leukemia (intraperitoneal) in B6D2F1 (BDF1) mice
Conditions: endpoint: mean survival time, higher = longer survival
Procedure, shortened: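 Read-out is survival time, reported as the treated-group measurement over the vehicle-control measurement.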

[1] = dose: 100.0 mg/kg/injection, schedule: Q04DX003 (ip), vehicle: saline with Tween-80
[2] = dose: 200.0 mg/kg/injection, schedule: Q04DX003 (ip), vehicle: saline with Tween-80
[3] = dose: 400.0 mg/kg/injection, schedule: Q04DX003 (ip), vehicle: saline with Tween-80

Measured: T/C

CCCCCCCCCCCCSCCNC(=O)CCl
inactive: dose: 100.0 mg/kg/injection, schedule: Q01DX009 (ip), vehicle: Klucel (hydroxypropylcellulose) (HPC) 87 % of control | dose: 100.0 mg/kg/injection, schedule: Q04DX003 (ip), vehicle: Klucel (hydroxypropylcellulose) (HPC) 95 % of control | dose: 200.0 mg/kg/injection, schedule: Q01DX009 (ip), vehicle: Klucel (hydroxypropylcellulose) (HPC) 92 % of control | dose: 200.0 mg/kg/injection, schedule: Q04DX003 (ip), vehicle: Klucel (hydroxypropylcellulose) (HPC) 92 % of control | dose: 400.0 mg/kg/injection, schedule: Q01DX009 (ip), vehicle: Klucel (hydroxypropylcellulose) (HPC) 88 % of control | dose: 400.0 mg/kg/injection, schedule: Q04DX003 (ip), vehicle: Klucel (hydroxypropylcellulose) (HPC) 92 % of control

CCCNC(=O)c1ccc(NCc2cnc3nc(N)nc(N)c3n2)cc1
inactive: dose: 100.0 mg/kg/injection, schedule: Q01DX001 (ip), vehicle: Klucel (hydroxypropylcellulose) (HPC) 92 % of control | dose: 200.0 mg/kg/injection, schedule: Q01DX001 (ip), vehicle: Klucel (hydroxypropylcellulose) (HPC) 100 % of control | dose: 400.0 mg/kg/injection, schedule: Q01DX001 (ip), vehicle: Klucel (hydroxypropylcellulose) (HPC) 98 % of control

COc1cccc(OC)c1C1(O)c2ccccc2-c2ccccc21
inactive: [1] 98 % of control | [2] 95 % of control | [3] 95 % of control

OC1CCCCC1Br (stereo not drawn)
inactive: dose: 50.0 mg/kg/injection, schedule: Q01DX001 (ip), vehicle: saline 96 % of control | dose: 100.0 mg/kg/injection, schedule: Q01DX001 (ip), vehicle: saline 98 % of control | dose: 200.0 mg/kg/injection, schedule: Q01DX001 (ip), vehicle: saline 113 % of control | dose: 400.0 mg/kg/injection, schedule: Q01DX001 (ip), vehicle: saline 102 % of control

[CH3][Hg][O]C(C)=O
inactive: dose: 3.0 mg/kg/injection, schedule: Q01DX009 (ip), vehicle: Klucel (hydroxypropylcellulose) (HPC) 86 % of control | dose: 3.12 mg/kg/injection, schedule: Q04DX003 (ip), vehicle: Klucel (hydroxypropylcellulose) (HPC) 104 % of control | dose: 6.0 mg/kg/injection, schedule: Q01DX009 (ip), vehicle: Klucel (hydroxypropylcellulose) (HPC) 91 % of control | dose: 6.25 mg/kg/injection, schedule: Q04DX003 (ip), vehicle: Klucel (hydroxypropylcellulose) (HPC) 96 % of control | dose: 12.5 mg/kg/injection, schedule: Q04DX003 (ip), vehicle: Klucel (hydroxypropylcellulose) (HPC) 96 % of control and 97 % of control

COc1ccccc1OC(=S)N(C)C
inactive: dose: 100.0 mg/kg/injection, schedule: Q01DX009 (ip), vehicle: saline with Tween-80 102 % of control | [1] 103 % of control | dose: 200.0 mg/kg/injection, schedule: Q01DX009 (ip), vehicle: saline with Tween-80 100 % of control | [2] 122 % of control | dose: 400.0 mg/kg/injection, schedule: Q01DX009 (ip), vehicle: saline with Tween-80 93 % of control | [3] 105 % of control

Fc1cc(F)c2ncccc2c1
inactive: dose: 12.5 mg/kg/injection, schedule: Q01DX001 (ip), vehicle: carboxymethylcellulose (CMC) 103 % of control | dose: 25.0 mg/kg/injection, schedule: Q01DX001 (ip), vehicle: carboxymethylcellulose (CMC) 98 % of control | dose: 50.0 mg/kg/injection, schedule: Q01DX001 (ip), vehicle: carboxymethylcellulose (CMC) 101 % of control | dose: 75.0 mg/kg/injection, schedule: Q01DX001 (ip), vehicle: carboxymethylcellulose (CMC) 117 % of control | dose: 150.0 mg/kg/injection, schedule: Q01DX001 (ip), vehicle: carboxymethylcellulose (CMC) 118 % of control

Cc1nc(N)[nH]c(=O)c1CC(C)O (stereo not drawn)
inactive: dose: 100.0 mg/kg/injection, schedule: Q04DX003 (ip), vehicle: saline 92 % of control | dose: 200.0 mg/kg/injection, schedule: Q04DX003 (ip), vehicle: saline 100 % of control | dose: 400.0 mg/kg/injection, schedule: Q04DX003 (ip), vehicle: saline 92 % of control

CC(C)(C)NC(=O)NN(c1ccccc1)C1CCS(=O)(=O)C1 (stereo not drawn)
inactive: dose: 100.0 mg/kg/injection, schedule: Q04DX002 (ip), vehicle: saline 108 % of control | dose: 200.0 mg/kg/injection, schedule: Q04DX002 (ip), vehicle: saline 97 % of control | dose: 400.0 mg/kg/injection, schedule: Q04DX002 (ip), vehicle: saline 97 % of control
